# Source: ChEMBL document CHEMBL5053508, “Optimization of Beclin 1-Targeting Stapled Peptides by Staple Scanning Leads to Enhanced Antiproliferative Potency in Cancer Cells” (J Med Chem, 2021)
# Calls of active or inactive are those of the source. No cut-off for these calls is given here.
# Legend:
# SK-BR-3 [1] = test: Induction of apoptosis in human SK-BR-3 cells assessed as live cells at 1 uM measured after 24 hrs by annexin V-FITC/PI staining based flow cytometry analysis (Rvb= 90.6%); format: functional
# SK-BR-3 [2] = test: Induction of apoptosis in human SK-BR-3 cells assessed as increase in cell death at 5 uM in presence of Z-VAD-FMK measured after 24 hrs by trypan blue exclusion assay; format: functional, cell-based
# SK-BR-3 [3] = test: Induction of apoptosis in human SK-BR-3 cells assessed as early apoptotic cells at 1 uM measured after 24 hrs by annexin V-FITC/PI staining based flow cytometry analysis (Rvb= 2.2%); format: functional
# SK-BR-3 [4] = test: Induction of apoptosis in human SK-BR-3 cells assessed as late apoptotic cells at 1 uM incubated for 24 hrs by flow cytometry with Annexin V-FITC/propidium iodide staining based flow cytometry assay (Rvb= 2.2%); format: functional
# SK-BR-3 [5] = test: Induction of apoptosis in human SK-BR-3 cells assessed as dead cells at 1 uM measured after 24 hrs by annexin V-FITC/PI staining based flow cytometry analysis (Rvb= 5.0%); format: functional
# SK-BR-3 [6] = test: Induction of apoptosis in human SK-BR-3 cells assessed as late apoptotic cells at 20 uM incubated for 24 hrs by flow cytometry with Annexin V-FITC/propidium iodide staining based flow cytometry assay (Rvb= 2.2%); format: functional
# SK-BR-3 [7] = test: Induction of apoptosis […] in human SK-BR-3 cells assessed as late apoptotic cells at 5 uM incubated for 24 hrs by flow cytometry with Annexin V-FITC/propidium iodide staining based flow cytometry analysis (Rvb= 2.2%); format: functional
# SK-BR-3 [8] = test: Induction of apoptosis in human SK-BR-3 cells assessed as live cells at 5 uM measured after 24 hrs by annexin V-FITC/PI staining based flow cytometry analysis (Rvb= 90.6%); format: functional
# SK-BR-3 [9] = test: Induction of apoptosis in human SK-BR-3 cells assessed as live cells at 10 uM measured after 24 hrs by annexin V-FITC/PI staining based flow cytometry analysis (Rvb= 90.6%); format: functional
# SK-BR-3 [10] = test: Induction of apoptosis in human SK-BR-3 cells assessed as late apoptotic cells at 40 uM incubated for 24 hrs by flow cytometry with Annexin V-FITC/propidium iodide staining based flow cytometry assay (Rvb= 2.2%); format: functional
# SK-BR-3 [11] = test: Induction of apoptosis in human SK-BR-3 cells assessed as dead cells at 20 uM measured after 24 hrs by annexin V-FITC/PI staining based flow cytometry analysis (Rvb= 5.0%); format: functional
# SK-BR-3 [12] = test: Induction of apoptosis in human SK-BR-3 cells assessed as early apoptotic cells at 5 uM measured after 24 hrs by annexin V-FITC/PI staining based flow cytometry analysis (Rvb= 2.2%); format: functional
# SK-BR-3 [13] = test: Induction of apoptosis in human SK-BR-3 cells assessed as early apoptotic cells at 40 uM measured after 24 hrs by annexin V-FITC/PI staining based flow cytometry analysis (Rvb= 2.2%); format: functional
# SK-BR-3 [14] = test: Induction of apoptosis in human SK-BR-3 cells assessed as live cells at 40 uM measured after 24 hrs by annexin V-FITC/PI staining based flow cytometry analysis (Rvb= 90.6%); format: functional
# SK-BR-3 [15] = test: Induction of apoptosis in human SK-BR-3 cells assessed as late apoptotic cells at 10 uM incubated for 24 hrs by flow cytometry with Annexin V-FITC/propidium iodide staining based flow cytometry assay (Rvb= 2.2%); format: functional
# SK-BR-3 [16] = test: Induction of apoptosis in human SK-BR-3 cells assessed as early apoptotic cells at 10 uM measured after 24 hrs by annexin V-FITC/PI staining based flow cytometry analysis (Rvb= 2.2%); format: functional
# SK-BR-3 [17] = test: Antiproliferative activity against human SK-BR-3 cells assessed as reduction in cell growth at 20 uM incubated for 5 days by trypan blue exclusion assay relative to control; format: functional; design: scale not given: the % may be the effect or the level left; conditions: time 5 day
# SK-BR-3 [18] = test: Induction of apoptosis in human SK-BR-3 cells assessed as dead cells at 5 uM measured after 24 hrs by annexin V-FITC/PI staining based flow cytometry analysis (Rvb= 5.0%); format: functional
# SK-BR-3 [19] = test: Induction of apoptosis in human SK-BR-3 cells assessed as dead cells at 10 uM measured after 24 hrs by annexin V-FITC/PI staining based flow cytometry analysis (Rvb= 5.0%); format: functional
# SK-BR-3 [20] = test: Induction of apoptosis in human SK-BR-3 cells assessed as dead cells at 40 uM measured after 24 hrs by annexin V-FITC/PI staining based flow cytometry analysis (Rvb= 5.0%); format: functional
# SK-BR-3 [21] = test: Induction of apoptosis in human SK-BR-3 cells assessed as early apoptotic cells at 20 uM measured after 24 hrs by annexin V-FITC/PI staining based flow cytometry analysis (Rvb= 2.2%); format: functional
# SK-BR-3 [22] = test: Induction of apoptosis in human SK-BR-3 cells assessed as live cells at 20 uM measured after 24 hrs by annexin V-FITC/PI staining based flow cytometry analysis (Rvb= 90.6%); format: functional
# Beclin-1 [23] = biological target: T1, Beclin-1 (Homo sapiens, UniProt Q14457); test: Binding affinity to Beclin 1 coiled coil domain (unknown origin) by isothermal titration calorimetry assay
# T1 sequence (Q14457 whole entry, the tested form may be a part): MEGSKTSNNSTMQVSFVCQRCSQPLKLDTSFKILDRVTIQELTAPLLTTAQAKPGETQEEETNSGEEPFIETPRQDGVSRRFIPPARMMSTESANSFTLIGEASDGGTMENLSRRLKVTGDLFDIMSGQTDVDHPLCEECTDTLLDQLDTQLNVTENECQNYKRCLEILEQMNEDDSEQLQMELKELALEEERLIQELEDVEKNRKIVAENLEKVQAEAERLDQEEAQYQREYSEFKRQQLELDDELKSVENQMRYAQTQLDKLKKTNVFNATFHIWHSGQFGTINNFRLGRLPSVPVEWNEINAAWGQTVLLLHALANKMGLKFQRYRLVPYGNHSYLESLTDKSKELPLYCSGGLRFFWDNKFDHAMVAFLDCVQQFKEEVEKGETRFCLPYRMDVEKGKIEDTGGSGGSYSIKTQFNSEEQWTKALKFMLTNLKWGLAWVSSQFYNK
# HEK293T [24] = test: Induction of FLAG tagged Beclin 1- Atg14L interaction in HEK293T cells assessed as increase in endogenous beclin 1 pull down at 30 uM by coimmunoprecipitation assay; format: cell-based; conditions: Homo sapiens
# [25] = biological target: Epidermal growth factor receptor (Homo sapiens) (UniProt P00533); test: Induction of endolysosomal trafficking of EGFR in human SK-BR-3 cells assessed as EGF-induced degradation of EGFR at 2 uM measured after 15 hrs post-EGF stimulation by western blot analysis relative to control; format: cell-based
# Sequence of Epidermal growth factor receptor (Homo sapiens) (P00533 whole entry): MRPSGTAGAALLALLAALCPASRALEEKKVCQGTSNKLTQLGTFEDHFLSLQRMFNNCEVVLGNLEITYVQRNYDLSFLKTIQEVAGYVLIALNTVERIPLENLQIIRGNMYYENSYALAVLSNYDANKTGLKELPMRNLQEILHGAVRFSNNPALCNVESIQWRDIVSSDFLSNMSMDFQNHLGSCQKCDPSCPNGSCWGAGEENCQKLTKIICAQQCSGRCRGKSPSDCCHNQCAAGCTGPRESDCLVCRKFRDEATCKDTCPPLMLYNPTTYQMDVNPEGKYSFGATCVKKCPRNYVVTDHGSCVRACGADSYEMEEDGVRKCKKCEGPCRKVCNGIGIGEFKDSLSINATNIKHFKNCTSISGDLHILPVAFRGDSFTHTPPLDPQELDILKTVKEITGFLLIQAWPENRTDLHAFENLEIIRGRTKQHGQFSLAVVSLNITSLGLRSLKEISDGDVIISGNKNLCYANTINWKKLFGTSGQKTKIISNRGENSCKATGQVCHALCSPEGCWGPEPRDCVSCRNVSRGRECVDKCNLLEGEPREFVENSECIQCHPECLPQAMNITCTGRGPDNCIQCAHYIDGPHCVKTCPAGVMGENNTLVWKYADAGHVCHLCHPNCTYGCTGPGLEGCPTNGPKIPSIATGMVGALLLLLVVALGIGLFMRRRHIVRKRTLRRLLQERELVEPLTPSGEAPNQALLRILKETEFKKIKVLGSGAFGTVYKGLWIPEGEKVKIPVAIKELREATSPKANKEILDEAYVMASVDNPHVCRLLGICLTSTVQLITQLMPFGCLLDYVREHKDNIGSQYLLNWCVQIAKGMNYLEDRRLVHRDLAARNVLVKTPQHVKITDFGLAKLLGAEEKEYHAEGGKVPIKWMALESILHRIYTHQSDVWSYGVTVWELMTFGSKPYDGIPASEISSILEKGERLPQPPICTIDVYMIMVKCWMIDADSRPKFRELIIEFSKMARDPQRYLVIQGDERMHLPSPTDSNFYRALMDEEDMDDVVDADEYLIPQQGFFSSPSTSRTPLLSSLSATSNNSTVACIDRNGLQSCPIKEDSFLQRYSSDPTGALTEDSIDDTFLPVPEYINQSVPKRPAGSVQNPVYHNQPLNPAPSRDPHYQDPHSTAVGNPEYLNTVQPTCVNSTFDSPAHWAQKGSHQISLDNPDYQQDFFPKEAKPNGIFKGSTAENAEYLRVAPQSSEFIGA
# SK-BR-3 [26] = test: Induction of apoptosis in human SK-BR-3 cells assessed as increase in cell death at 10 uM in presence of Z-VAD-FMK measured after 24 hrs by trypan blue exclusion assay; format: functional, cell-based
# HEK-293T [27] = test: Induction of autophagy in human HEK293T cells assessed as increase in p62 protein level at 10 to 20 uM in presence of chloroquine measured after 3 hrs by western blot analysis; format: functional, cell-based; conditions: dose 10-20 µM
# HEK293T [28] = test: Induction of FLAG tagged Beclin 1- Atg14L interaction in HEK293T cells assessed as increase in endogenous beclin 1 pull down at 10 to 20 uM by coimmunoprecipitation assay; format: cell-based; conditions: Homo sapiens, dose 10-20 µM
# [29] = biological target: Receptor tyrosine-protein kinase erbB-2 (Homo sapiens) (UniProt P04626); test: Induction of endolysosomal trafficking of HER2 in human SK-BR-3 cells assessed as EGF-induced degradation of HER2 at 2 uM measured after 24 hrs post-EGF stimulation by western blot analysis relative to control; format: cell-based
# Sequence of Receptor tyrosine-protein kinase erbB-2 (Homo sapiens) (P04626 whole entry): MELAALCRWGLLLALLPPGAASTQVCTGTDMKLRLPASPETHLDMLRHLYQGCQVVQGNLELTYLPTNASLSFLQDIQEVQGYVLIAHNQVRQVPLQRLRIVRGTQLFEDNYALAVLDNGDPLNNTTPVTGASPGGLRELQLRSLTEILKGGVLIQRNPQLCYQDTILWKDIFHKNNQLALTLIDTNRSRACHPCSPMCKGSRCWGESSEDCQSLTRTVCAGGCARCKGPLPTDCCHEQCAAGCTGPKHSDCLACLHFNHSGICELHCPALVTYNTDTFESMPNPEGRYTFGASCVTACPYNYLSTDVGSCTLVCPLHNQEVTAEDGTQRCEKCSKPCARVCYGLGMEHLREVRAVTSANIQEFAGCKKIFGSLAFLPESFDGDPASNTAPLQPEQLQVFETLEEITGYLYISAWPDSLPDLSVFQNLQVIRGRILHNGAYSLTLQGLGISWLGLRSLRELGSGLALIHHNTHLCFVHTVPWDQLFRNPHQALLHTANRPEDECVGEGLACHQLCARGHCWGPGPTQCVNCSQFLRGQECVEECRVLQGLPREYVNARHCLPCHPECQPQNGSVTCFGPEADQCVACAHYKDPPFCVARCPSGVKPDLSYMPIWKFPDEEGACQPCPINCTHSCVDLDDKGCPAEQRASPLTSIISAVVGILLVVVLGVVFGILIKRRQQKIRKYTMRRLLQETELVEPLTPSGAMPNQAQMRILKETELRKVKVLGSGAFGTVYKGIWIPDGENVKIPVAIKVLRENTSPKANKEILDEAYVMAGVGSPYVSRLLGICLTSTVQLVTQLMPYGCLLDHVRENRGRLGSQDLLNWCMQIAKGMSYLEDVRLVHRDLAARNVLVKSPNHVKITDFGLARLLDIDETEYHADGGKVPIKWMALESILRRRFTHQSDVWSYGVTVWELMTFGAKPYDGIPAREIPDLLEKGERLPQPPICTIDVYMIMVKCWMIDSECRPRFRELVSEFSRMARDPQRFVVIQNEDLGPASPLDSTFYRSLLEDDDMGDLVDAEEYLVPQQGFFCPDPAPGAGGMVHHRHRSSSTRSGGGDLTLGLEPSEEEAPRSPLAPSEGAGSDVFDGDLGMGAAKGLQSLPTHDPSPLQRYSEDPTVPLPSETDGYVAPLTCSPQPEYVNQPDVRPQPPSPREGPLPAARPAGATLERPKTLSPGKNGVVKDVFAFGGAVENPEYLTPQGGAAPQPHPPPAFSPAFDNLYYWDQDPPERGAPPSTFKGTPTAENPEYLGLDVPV
# SK-BR-3 [30] = test: Induction of apoptosis in human SK-BR-3 cells assessed as increase in cleaved caspase-3 level at 10 uM incubated for 24 hrs by western blot analysis; format: functional, cell-based
# HEK293T [31] = test: Induction of Beclin 1- FLAG tagged UVRAG interaction in HEK293T cells assessed as endogenous beclin 1 pull down at 10 uM by coimmunoprecipitation assay; format: cell-based; conditions: Homo sapiens
# HEK-293T [32] = test: Induction of autophagy in human HEK293T cells assessed as increase in LC3-II protein level at 10 to 20 uM in presence of chloroquine measured after 3 hrs by western blot analysis; format: functional, cell-based; conditions: dose 10-20 µM
# HEK-293T [33] = test: Cytotoxicity against HEK293T cells assessed as reduction in cell viability at 10 to 20 uM measured after 24 hrs by trypan blue exclusion assay; format: cell-based; conditions: human, dose 10-20 µM
# HEK-293T [34] = test: Induction of autophagy in HEK293T cells assessed as increase in LC3-II protein level at 10 to 20 uM incubated for 3 hrs by western blot analysis; format: functional, cell-based; conditions: Homo sapiens, dose 10-20 µM
# SK-BR-3 [35] = test: Antiproliferative activity against human SK-BR-3 cells assessed as reduction of cell growth measured after 24 hrs by trypan blue exclusion assay; conditions: SK-BR-3, 24 h
# [36] = biological target: Receptor tyrosine-protein kinase erbB-2 (Homo sapiens) (UniProt P04626); test: Induction of endolysosomal trafficking of HER2 in human SK-BR-3 cells assessed as EGF-induced degradation of HER2 at 2 uM measured after 15 hrs post-EGF stimulation by western blot analysis relative to control; format: cell-based
# SK-BR-3 [37] = test: Induction of apoptosis in human SK-BR-3 cells assessed as increase in cleaved PARP level at 10 uM incubated for 24 hrs by western blot analysis; format: functional, cell-based
# SK-BR-3 [38] = test: Antiproliferative activity against human SK-BR-3 cells assessed as reduction in cell growth incubated for 5 days by trypan blue exclusion assay; format: functional, cell-based; conditions: time 5.0 day
# HEK-293T [39] = test: Induction of autophagy in human HEK293T cells assessed as increase in p62 protein level at 10 to 20 uM measured after 3 hrs by western blot analysis; format: functional, cell-based; conditions: dose 10-20 µM
# Beclin-1 [40] = biological target: T1, Beclin-1; test: Inhibition of FLAG-tagged Beclin 1 self-association in HEK293T cells cotransfected with GFP assessed as reduction in beclin 1- GFP pull down by FLAG-beclin 1 by coimmunoprecipitation assay; format: cell-based
structure (smiles),measurement,setting,value
COc1cccc2c1C(=O)c1c(O)c3c(c(O)c1C2=O)C[C@@](O)(C(=O)CO)C[C@@H]3O[C@H]1C[C@H](N)[C@H](O)[C@H](C)O1 [DOXORUBICIN],Activity,SK-BR-3 [1],48.1%
same,Activity,SK-BR-3 [2],inactive
same,Activity,SK-BR-3 [3],16.5%
same,Activity,SK-BR-3 [4],18.7%
same,Activity,SK-BR-3 [5],16.7%
CC[C@H](C)[C@H](NC(=O)[C@H](CC(C)C)NC(=O)[C@H](CCCNC(=N)N)NC(=O)[C@H](CCCNC(=N)N)NC(=O)[C@H](CCCNC(=N)N)NC(=O)[C@H](CCCNC(=N)N)NC(=O)[C@H](CCC(N)=O)NC(=O)[C@H](CCCNC(=N)N)NC(=O)[C@H](CCCNC(=N)N)NC(=O)[C@H](CCCCN)NC(=O)[C@H](CCCCN)NC(=O)[C@H](CCCNC(=N)N)NC(=O)CNC(=O)[C@H](Cc1ccc(O)cc1)NC(C)=O)C(=O)N[C@@H](CO)C(=O)N[C@@H](CCC(=O)O)C(=O)N[C@@H](CC(C)C)C(=O)N[C@@H]1CCCCCC/C=C/CCC[C@@H](C(=O)N[C@@H](C)C(N)=O)NC(=O)[C@H](CCCNC(=N)N)NC(=O)[C@H](CCC(N)=O)NC(=O)[C@H](CCCCN)NC(=O)[C@H](CCC(=O)O)NC(=O)[C@H](CCCNC(=N)N)NC(=O)[C@H](CC(=O)O)NC1=O,Activity,SK-BR-3 [6],6.1%
same,Activity,SK-BR-3 [7],8.2%
same,Activity,SK-BR-3 [8],91%
same,Activity,SK-BR-3 [9],90.6%
same,Activity,SK-BR-3 [10],21.6%
same,Activity,SK-BR-3 [11],3.5%
same,Activity,SK-BR-3 [12],0.2%
same,Activity,SK-BR-3 [13],0.8%
same,Activity,SK-BR-3 [14],76.1%
same,Activity,SK-BR-3 [15],8.1%
same,Activity,SK-BR-3 [16],0.2%
same,Activity,SK-BR-3 [17],30%
same,Activity,SK-BR-3 [18],0.4%
same,Activity,SK-BR-3 [19],0.8%
same,Activity,SK-BR-3 [20],1.5%
same,Activity,SK-BR-3 [21],1.1%
same,Activity,SK-BR-3 [22],89%
CC[C@H](C)[C@@H]1NC(=O)[C@H](C(C)C)NC(=O)[C@H](CC(=O)O)NC(=O)[C@H](C(C)C)NC(=O)[C@H](CC(C)C)NC(=O)[C@H](NC(=O)[C@H](CC(N)=O)NC(=O)[C@H](Cc2ccccc2)NC(=O)[C@H](CC(C)C)NC(=O)[C@@H](NC(=O)[C@H](CCCNC(=N)N)NC(=O)[C@H](CCCNC(=N)N)NC(=O)[C@H](CCCNC(=N)N)NC(=O)[C@H](CCC(N)=O)NC(=O)[C@H](CCCNC(=N)N)NC(=O)[C@H](CCCNC(=N)N)NC(=O)[C@H](CCCCN)NC(=O)[C@H](CCCCN)NC(=O)[C@H](CCCNC(=N)N)NC(=O)CNC(=O)[C@H](Cc2ccc(O)cc2)NC(C)=O)C(C)C)CCCCCC/C=C/CCC[C@@H](C(=O)N[C@@H](CCCNC(=N)N)C(=O)N[C@@H](CCCCN)C(=O)N[C@H](C(N)=O)C(C)C)NC(=O)[C@H](CCCCN)NC1=O,Kd,Beclin-1 [23],0.33 µM
same,Activity,HEK293T [24],Active
same,Activity,[25],60%
same,Activity,SK-BR-3 [26],Active
same,Activity,SK-BR-3 [7],13.3%
same,Activity,SK-BR-3 [8],81.1%
same,Activity,HEK-293T [27],inactive
same,Activity,HEK293T [28],inactive
same,Activity,SK-BR-3 [9],69%
same,Activity,[29],70%
same,Activity,SK-BR-3 [30],inactive
same,Activity,HEK293T [31],Active
same,Activity,SK-BR-3 [12],2%
same,Activity,SK-BR-3 [15],29.5%
same,Activity,SK-BR-3 [16],0.3%
same,Activity,HEK-293T [32],Active
same,Activity,SK-BR-3 [18],0.6%
same,Activity,SK-BR-3 [19],1.2%
same,Activity,HEK-293T [33],Non-Toxic
same,Activity,HEK-293T [34],Active
same,IC50,SK-BR-3 [35],7.12 µM
same,Activity,[36],50%
same,Activity,SK-BR-3 [37],inactive
same,Activity,SK-BR-3 [38],Dose-dependent effect
same,Activity,HEK-293T [39],inactive
same,inhibition,Beclin-1 [40],Dose-dependent effect
